Results: paper PMC8699261, “Structural Characterization of Rat Galectin-5, an N-Tailed Monomeric Proto-Type-like Galectin” (Biomolecules, 2021)
Values joined by “and” are separate entries in the source; they are usually repeats but may differ in a detail not shown here. Equal values may be shown once. Read-outs that look alike come from different tables or passages of the source.

Assays:
rat galectin-5 (rGal-5) [1] = target: T1, rat galectin-5 (rGal-5) (Rattus norvegicus, UniProt P47967); test: Glycan array (609 compounds) tested with biotinylated rGal-5, Alexa555-streptavidin detection; format: binding; details: 100 µg/mL biotinylated rGal-5; ranking in words
T1 construct: we used the full-length protein to obtain structural information on the N-terminal tail; made in house
T1 sequence (P47967 whole entry): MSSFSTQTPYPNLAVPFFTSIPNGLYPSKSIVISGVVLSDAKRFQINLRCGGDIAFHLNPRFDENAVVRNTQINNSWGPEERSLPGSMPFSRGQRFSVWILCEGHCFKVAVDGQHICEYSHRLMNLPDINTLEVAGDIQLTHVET
Method: The array consisted of 609 compounds covering glycans and polysaccharides printed onto commercial NHS-activated Slide H (Schott Nexterion, Jena, Germany), tested with 100 µg/mL biotinylated rGal-5 and involving Alexa555-labeled streptavidin (Thermo Fisher Scientific, Eugene, OR, USA) as second-step reagent for Innoscan 1100AL scanner-based (Innopsys, Carbonne, France) signal qualification, expressed in medium relative fluorescence units (RFU) and medium absolute deviation (MAD), as described previously. When the fluorescence intensity exceeded the background value by a factor of five, the respective signal was considered to be significant.

rat galectin-5 (rGal-5) [2] = target: T1, rat galectin-5 (rGal-5); test: Isothermal titration calorimetry (ITC) of ligand binding to recombinant rGal-5
Method: The spacered B (type 2) tetrasaccharide was synthesized as described previously. Titrations were monitored in a PEAQ-ITC calorimeter (Malvern, Westborough, MA, USA), using a galectin-containing solution of 250 µL in PBS (10 mM Na2HPO4, 2 mM KH2PO4, 137 mM NaCl and 3 mM KCl at pH 6.8) containing 10 mM β-mercaptoethanol and injections at 150 s intervals of 2 µL ligand-containing solution (up to adding 36.4 µL) at 25 °C (750 rpm), as described. The protein concentration was 125 μM, and the ligand concentration in the syringe was 2.5 mM. In each titration, a fitted offset parameter was applied to account for potential background. Data processing was performed using the MiroCal PEAQ-ITC Analysis software.

[3] = 25 °C, individual titration, protein 125 μM, ligand 2.5 mM in syringe, PBS pH 6.8, read-out: Kd
[4] = (summarises Table 2), read-out: dissociation constant

| Compound | signal intensity in glycan array (rat galectin-5 (rGal-5) [1]) | Stoichiometry (rat galectin-5 (rGal-5) [2]; 25 °C, individual titration) | ΔG0obs (rat galectin-5 (rGal-5) [2]; 25 °C, individual titration) | ΔH0obs (rat galectin-5 (rGal-5) [2]; 25 °C, individual titration) | −TΔS0obs (rat galectin-5 (rGal-5) [2]; 25 °C, individual titration) | Kd (rat galectin-5 (rGal-5) [2]; [3]) | Kd (rat galectin-5 (rGal-5) [2]; [4]) [µM] |
| --- | --- | --- | --- | --- | --- | --- | --- |
| histo-blood-group B (type 2) tetrasaccharide [Tetrasacc haride] | frontrunners in terms of signal intensity | 0.98 ± 0.01 and 0.94 ± 0.01 | -29.7 kJ/mol | -24 ± 0.13 kJ/mol and -23.4 ± 0.13 kJ/mol | -5.73 kJ/mol and -6.32 kJ/mol | 5 µM and 6.1 µM | 5.5 ± 0.6 |
| CC(=O)N[C@H]1C(O)O[C@H](CO)[C@@H](O[C@@H]2O[C@H](CO)[C@H](O)[C@H](O)[C@H]2O)[C@@H]1O (some centres unmarked) [LacNAc, N-acetyllactosamine] |  | 0.92 ± 0.01 and 0.94 ± 0.20 | -25.5 kJ/mol and -25.1 kJ/mol | -41.8 ± 0.84 kJ/mol and -43.9 ± 10.9 kJ/mol | 16.2 kJ/mol and 18.5 kJ/mol | 28.6 µM and 32.3 µM | 30.5 ± 1.9 |
| CC(=O)N[C@H]1C(O)O[C@H](CO)[C@@H](O[C@@H]2O[C@H](CO)[C@H](O)[C@H](O[C@H]3O[C@H](CO)[C@H](O)[C@H](O)[C@H]3O)[C@H]2O)[C@@H]1O (some centres unmarked) | frontrunners in terms of signal intensity |  |  |  |  |  |  |
| OC[C@H]1O[C@@H](O[C@H]2[C@H](O)[C@@H](O)C(O)O[C@@H]2CO)[C@H](O)[C@@H](O)[C@H]1O (mixture of isomers) [Lactose, lactose] |  | 0.95 ± 0.05 and 0.99 ± 0.06 | -22.4 kJ/mol and -21.8 kJ/mol | -20.9 ± 0.33 kJ/mol and -21 ± 1.72 kJ/mol | -1.51 kJ/mol and -0.753 kJ/mol | 121 µM and 151 µM | 136 ± 16 |
